Four compounds from PMC8508980, “Design, Synthesis and Anticancer Profile of New 4-(1H-benzo[d]imidazol-1-yl)pyrimidin-2-amine-Linked Sulfonamide Derivatives with V600EBRAF Inhibitory Effect” (International Journal of Molecular Sciences, 2021) can be followed below.

The target in one experiment is T1, V600EBRAF (Homo sapiens, UniProt P15056, V600E).
T1 construct: purchased Reaction Biology Corp. (Kinase HotSpot service)
As to the kind of experiment: Reaction Biology kinase HotSpot enzyme assay. Format: biochemical. The note with it: 1 µM ATP; for IC50: mean ± S.D. of two separate experiments; for % Inhibition at 1 µM over V600EBRAF / inhibition at 1 µM: single dose 1 µM, mean ± S.D. of two experiments; for inhibition at 1 µM: read-out: % Inhibition at 1 µM over V600EBRAF. On the procedure:
Reaction Biology Corp. Kinase HotSpotTM service
Proﬁler Express for IC50 measurement. Assay protocol: In a ﬁnal reaction volume of 25 μL, kinase (5–10 mU) is incubated with 25 mM Tris pH 7.5, 0.02 mM EGTA, 0.66 mg/mL myelin basic protein, 10 mM magnesium acetate and [γ33P-ATP] (speciﬁc activity approx. 500 cpm/pmol, concentration as required). The reaction is initiated by the addition of the Mg-ATP mix. After incubation for 40 min at room temperature, the reaction is stopped by the addition of 5 μL of a 3% phosphoric acid solution. 10 μL of the reaction is then spotted onto a P30 ﬁltermat, and washed three times for 5 min in 75 mM phosphoric acid and once in methanol prior to drying and scintillation counting.

Another experiment relates to CCRF-CEM. Briefly: NCI 60 cell line screen. The format is cell-based. The note with it: Homo sapiens, Leukemia, read-out: Percent growth. On the procedure:
(§1) Anticancer profiling over a panel of 60 cancer cell lines was carried out at the National Cancer Institute (NCI), Bethesda, Maryland, USA, https://dtp.cancer.gov/discovery_development/nci-60/methodology.htm (Last visit 22 September 2021), using the standard procedure (detailed procedure is located in the Supplementary Information page 50 s).
(§2) NCI standard procedure for 60 cell lines assay
(§3) The human tumor cell lines of the cancer screening panel are grown in RPMI 1640 mediu m containing 5% fetal bovine serum and 2 mM L-glutamine. For a typical screening experiment, cells are inoculated into 96 well microtiter plates in 100 μL at plating densities ranging from 5,000 to 40,000 cells/well depending on the doubling time of individual cell lines. After cell inoculation, the microtiter plates are incubated at 37° C, 5 % CO2, 95 % air and 100 % relative humidity for 24 h prior to addition of experimental drugs.
(§4) After 24 h, two plates of each cell line are fixed in situ with TCA, to represent a measurement of the cell population for each cell line at the time of drug addition (Tz). Experimental drugs are solubilized in dimethyl sulfoxide at 400-fold the desired final maximum test concentration (10 µM) and stored frozen prior to use. At the time of drug addition, an aliquot of frozen concentrate is thawed and diluted to twice the desired final maximum test concentration with co mp lete medium containing 50 μg/ml gentamicin. Additional four, 10-fold or ½ log serial dilutions are made to provide a total of five drug concentrations plus control. Aliquots of 100 μl of these different drug dilutions are added to the appropriate microtiter wells already containing 100 μl of medium, resulting in the required final drug concentrations.
(§5) Following drug addition, the plates are incubated for an additional 48 h at 37°C, 5 % CO2, 95 % air, and 100 % relative humidity. For adherent cells, the assay is terminated by the addition of cold TCA. Cells are fixed in situ by the gentle addition of 50 μl of cold 50 % (w/v) TCA (final concentration, 10 % TCA) and incubated for 60 minutes at 4°C. The supernatant is discarded, and the plates are washed five times with tap water and air dried. Sulforhodamine B (SRB) solution (100 μl) at 0.4 % (w/v) in 1 % acetic acid is added to each well, and plates are incubated for 10 minutes at room temperature. After staining, unbound dye is removed by washing five times with 1 % acetic acid and the plates are air dried. Bound stain is subsequently solubilized with 10 mM trizma base, and the absorbance is read on an automated plate reader at a wavelength of 515 nm. For suspension cells, the methodology is the same except that the assay is terminated by fixing settled cells at the bottom of the wells by g ently adding 50 μl of 80 % TCA (final concentration, 16 % TCA). Using the seven absorbance measurements [time zero, (Tz), control growth, (C), and test growth in the presence of drug at the five concentration levels (Ti)], the percentage growth is calculated at each of the drug concentrations levels. Percentage growth inhibition is calculated as:
(§6) [(Ti-Tz)/(C-Tz)] x 100 for concentrations for which Ti>/=Tz
(§7) [(Ti-Tz)/Tz] x 100 for concentrations for which Ti<Tz.
(§8) Three dose response parameters are calculated for each experimental agent. Growth inhibition of […]
(§9) resulting in a 50% reduction in the net protein increase (as measured by SRB staining) in control cells during the drug incubation. The drug concentration resulting in total growth inhibition […]
(§10) (TGI) is calculated from Ti = Tz.

A further experiment has as its system OVCAR-3. As to the kind of experiment: NCI 60 cell line screen. The note with it: Homo sapiens; OVCAR-3, Ovarian Cancer; read-out: Percent growth. Format: cell-based. Here is the method: as §1, §2, §3, §4, §5, §6, §7, §8, §9, §10
In a further experiment the test system is OVCAR-8. As to the kind of experiment: NCI 60 cell line screen. Format: cell-based. Conditions: Homo sapiens; OVCAR-8, Ovarian Cancer; read-out: Percent growth. On the procedure: as §1, §2, §3, §4, §5, §6, §7, §8, §9, §10
For a further experiment, the system named is CAKI-1. As to the kind of experiment: NCI 60 cell line screen. Format: cell-based, human. The note with it: Homo sapiens; CAKI-1, Renal Cancer; read-out: Percent growth. The procedure, abridged: (§11)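 48 h continuous exposure, five doses, highest 10 µM; cells in RPMI 1640 + 5% FBS at 37 °C, 5% CO2. TCA fixation, sulforhodamine B staining, A515.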
For a further experiment, the system named is HCT-15. Briefly: NCI 60 cell line screen. Format: cell-based, human. Conditions: Homo sapiens; HCT-15, Colon Cancer; read-out: Percent growth. In a few lines:
as §11

For a further experiment, the system named is HT29. As to the kind of experiment: NCI 60 cell line screen. The format is cell-based, human. The note with it: Homo sapiens, HT-29; HT29, Colon Cancer; read-out: Percent growth. The procedure, abridged: as §11
A further experiment has as its system KM12. As to the kind of experiment: NCI 60 cell line screen. The format is cell-based, human. Conditions: Homo sapiens; KM12, Colon Cancer; read-out: Percent growth. In a few lines: (§12)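 SRB read-out (515 nm) after 48 h drug exposure, 37 °C, RPMI 1640/5% FBS; five-point dilution series, top conc. 10 µM. Percent growth from Tz, control and treated absorbances; GI50 and TGI derived.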

A further experiment has as its system MOLT-4. As to the kind of experiment: NCI 60 cell line screen. Format: cell-based, human. The note with it: Homo sapiens; MOLT-4, Leukemia; read-out: Percent growth. In a few lines:
as §12

Another experiment deals with NCI-H460. As to the kind of experiment: NCI 60 cell line screen. The format is cell-based, human. Conditions: Homo sapiens; NCI-H460, Non-Small Cell Lung Cancer; read-out: Percent growth. The procedure, abridged: as §11
Another experiment concerns OVCAR-4. Briefly: NCI 60 cell line screen. The format is cell-based, human. Conditions: Homo sapiens; OVCAR-4, Ovarian Cancer; read-out: Percent growth. In a few lines:
as §12

For another experiment, the system named is PC-3. Briefly: NCI 60 cell line screen. The format is cell-based, human. Conditions: Homo sapiens; PC-3, Prostate Cancer; read-out: Percent growth. The procedure, abridged:
as §11

A further experiment has as its system RPMI-8226. As to the kind of experiment: NCI 60 cell line screen. The format is cell-based, human. Conditions: Homo sapiens; RPMI-8226, Leukemia; read-out: Percent growth. In a few lines: as §12
The next experiment concerns SNB-75. Briefly: NCI 60 cell line screen. Format: cell-based, human. Conditions: Homo sapiens; SNB-75, CNS-Cancer; read-out: Percent growth. The procedure, abridged: as §11
In a further experiment the test system is T-47D. As to the kind of experiment: NCI 60 cell line screen. Format: cell-based, human. The note with it: Homo sapiens, T47D, Breast Cancer, read-out: Percent growth. The procedure, abridged:
as §12

The subject of a further experiment is UO-31. As to the kind of experiment: NCI 60 cell line screen. Conditions: Homo sapiens; UO-31, Renal Cancer; read-out: Percent growth. The format is cell-based, human. The procedure, abridged: as §11

T1 sequence (P15056 whole entry V600E): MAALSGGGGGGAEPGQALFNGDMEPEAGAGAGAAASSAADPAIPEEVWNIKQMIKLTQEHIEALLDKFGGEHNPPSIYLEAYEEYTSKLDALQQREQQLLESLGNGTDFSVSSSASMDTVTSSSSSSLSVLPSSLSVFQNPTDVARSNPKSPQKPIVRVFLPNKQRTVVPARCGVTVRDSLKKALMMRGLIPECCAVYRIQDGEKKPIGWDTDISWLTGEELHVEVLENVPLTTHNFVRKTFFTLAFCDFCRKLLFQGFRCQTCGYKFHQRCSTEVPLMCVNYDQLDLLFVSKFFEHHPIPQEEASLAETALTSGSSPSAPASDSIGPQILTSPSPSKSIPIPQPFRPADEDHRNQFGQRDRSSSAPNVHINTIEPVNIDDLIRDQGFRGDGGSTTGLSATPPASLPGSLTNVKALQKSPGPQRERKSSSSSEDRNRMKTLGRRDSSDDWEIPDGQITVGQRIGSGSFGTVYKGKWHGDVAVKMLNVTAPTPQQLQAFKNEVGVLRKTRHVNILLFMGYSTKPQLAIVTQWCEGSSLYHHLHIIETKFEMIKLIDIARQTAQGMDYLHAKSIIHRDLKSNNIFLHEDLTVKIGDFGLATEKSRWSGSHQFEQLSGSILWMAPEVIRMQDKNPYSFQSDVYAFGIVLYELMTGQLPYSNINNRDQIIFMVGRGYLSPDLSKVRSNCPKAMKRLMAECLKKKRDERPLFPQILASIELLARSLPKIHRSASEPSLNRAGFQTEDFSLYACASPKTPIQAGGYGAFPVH

The compound `O=S(=O)(NCCNc1nccc(-n2cnc3ccccc32)n1)c1ccccc1` [12a, N-(2-((4-(1H-benzo [d]imidazol-1-yl)pyrimidin-2-yl)amino)ethyl)benzenesulfonamide] yielded an IC50 against V600EBRAF of 1910 ± 140 nM. The “% Inhibition at 1 µM over V600EBRAF” value on V600EBRAF came to 30.35 ± 0.41%. The inhibition at 1 µM on V600EBRAF turned out to be 30%. In addition, the activity at 10 µM with CCRF-CEM was found to be 96%; in the experiment on OVCAR-3, 109%; with OVCAR-8 it was 98%; in the experiment on CAKI-1, 83.7%; in the experiment with HCT-15, 97%; in the experiment on HT29, 102%. For the same compound, the activity at 10 µM in the experiment with KM12 worked out at 100%; in the experiment on MOLT-4 it was 93.7%; in the experiment on NCI-H460, 103%; in the experiment with OVCAR-4 it was 93.4%; with PC-3 it was 93.5%; with RPMI-8226, 84.9%. For the same compound, the activity at 10 µM with SNB-75 was 91.8%; with T-47D it was 75.4%; in the experiment with UO-31 it was 77%.

As for `O=S(=O)(NCCNc1nccc(-n2cnc3ccccc32)n1)c1ccc(F)cc1` [12b, N-(2-((4-(1H-benzo [d]imidazol-1-yl)pyrimidin-2-yl)amino)ethyl)-4-fluorobenzenesulfonamide], on V600EBRAF, inhibition was half-maximal at 740 ± 51 nM (IC50). For the same compound, the “% Inhibition at 1 µM over V600EBRAF” value at V600EBRAF was found to be 75.17 ± 0.27%. The inhibition at 1 µM at V600EBRAF is 75%. Besides, the activity at 10 µM with CCRF-CEM was determined as 93.5%; in the experiment with OVCAR-3, 106%; in the experiment with OVCAR-8, 89%; in the experiment with CAKI-1, 82%; in the experiment on HCT-15 it was 100%; with HT29 it was 94.4%. In addition, the activity at 10 µM is 73.4% in the experiment on KM12; 90.5% in the experiment on MOLT-4; 96.3% in the experiment with NCI-H460; 72.3% in the experiment with OVCAR-4; 91.3% with PC-3; 73.6% in the experiment on RPMI-8226. For the same compound, the activity at 10 µM in the experiment on SNB-75 was found to be 73.6%; in the experiment with T-47D it was 64.4%; with UO-31, 72.6%.

Regarding `O=S(=O)(NCCNc1nccc(-n2cnc3ccccc32)n1)c1ccc(Cl)cc1` [12c, N-(2-((4-(1H-benzo [d]imidazol-1-yl)pyrimidin-2-yl)amino)ethyl)-4-chlorobenzenesulfonamide], the IC50 on V600EBRAF was 820 ± 24 nM. In addition, the “% Inhibition at 1 µM over V600EBRAF” value on V600EBRAF was 70.55 ± 0.71%. For the same compound, the inhibition at 1 µM at V600EBRAF stood at 71%. In addition, the activity at 10 µM in the experiment on CCRF-CEM turned out to be 103%; with OVCAR-3 it was 106%; in the experiment on OVCAR-8, 102%; with CAKI-1 it was 87.4%; in the experiment with HCT-15, 96.6%; in the experiment with HT29 it was 103%. For the same compound, the activity at 10 µM with KM12 stood at 97.1%; with MOLT-4 it was 103%; in the experiment on NCI-H460 it was 103%; in the experiment with OVCAR-4, 95.2%; in the experiment on PC-3, 103%; with RPMI-8226 it was 99.4%. The activity at 10 µM in the experiment on SNB-75 came to 79.4%; in the experiment on T-47D it was 97.1%; in the experiment with UO-31, 81.6%.

In turn, `O=S(=O)(NCCNc1nccc(-n2cnc3ccccc32)n1)c1ccc(Br)cc1` [12d, N-(2-((4-(1H-benzo [d]imidazol-1-yl)pyrimidin-2-yl)amino)ethyl)-4-bromobenzenesulfonamide] had an IC50 against V600EBRAF of 910 ± 19 nM. At V600EBRAF, the “% Inhibition at 1 µM over V600EBRAF” value came to 69.28 ± 0.51%. Besides, on V600EBRAF, the inhibition at 1 µM was 69%. Further, the activity at 10 µM is 101% with CCRF-CEM; 103% with OVCAR-3; 95.6% in the experiment with OVCAR-8; 81.5% in the experiment on CAKI-1; 95.7% in the experiment with HCT-15; 97.2% with HT29. The activity at 10 µM with KM12 worked out at 85.4%; in the experiment on MOLT-4, 95.9%; in the experiment with NCI-H460, 101%; in the experiment on OVCAR-4, 82.2%; with PC-3, 93.8%; with RPMI-8226 it was 79.8%. Besides, the activity at 10 µM in the experiment with SNB-75 is 74.1%; with T-47D, 59.1%; in the experiment on UO-31, 79.8%.

The term IC50 denotes the concentration that gives 50% inhibition. For orientation: % Inhibition means the change of the read-out against control, counted positive when it falls. Read a high % Inhibition as strong suppression. One may read the inhibition as the relative decrease from the control value, in per cent.
